Experimental data taken from patent US6566348B1, “Pesticides based on cyclic polysiloxanes” (Bayer Aktiengesellschaft, priority 1995, dated 2003).

Test: Crystallizing out at low temperatures
Format: physicochemical

In the case of `C[Si]1(C)O[Si](C)(C)O[Si](C)(C)O[Si](C)(C)O[Si](C)(C)O1` [Decamethylcyclopentasiloxane, decamethylcyclopentasiloxane], the “stability at low temperatures” value is reported as “stable at low temperatures, without crystallizing out”.
